Measured values as given in patent US6897028B1, “Identification of molecular targets” (Florida State University, priority 1997, dated 2005).

What was measured:
human LIF = human LIF (Homo sapiens, UniProt P15018); assay: ELISA binding of biotinylated dioxin to LIF; conditions: species not given
Procedure: The applicants utilized the same biotinylated dioxin as Petrenko in an ELISA assay for binding to LIF, to several mutants of the LIF protein changed in the EPFP homology domain (residues 50-53), to anti-dioxin antibodies as a positive control, and to ciliary neurotrophic factor (CNTF) (structurally similar to LIF but lacking the SEQ. ID NO. 5 motif) as a negative control. […] to human and murine LIF with a KD of approximately 10-100 μM, indicating an affinity approximately 10,000 fold less than the anti-dioxin antibodies used as a positive control.

GST = GST (Schistosoma japonicum, UniProt P08515); assay: Circular dichroism control: purified GST with and without taxol; type: binding; conditions: GST alone
Sequence of GST (P08515 whole entry): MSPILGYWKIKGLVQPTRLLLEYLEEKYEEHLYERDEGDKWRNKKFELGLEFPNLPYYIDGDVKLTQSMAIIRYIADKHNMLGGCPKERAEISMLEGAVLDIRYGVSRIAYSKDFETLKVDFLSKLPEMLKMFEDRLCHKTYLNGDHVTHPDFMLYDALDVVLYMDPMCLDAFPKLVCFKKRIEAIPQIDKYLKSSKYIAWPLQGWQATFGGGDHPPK
Procedure: In a control experiment, taxol was added to purified GST from S. japonicum. […] The differences are far smaller than the error bars, and there is no change in the 220/210 nm ratio, nor is a peak shift observed. This means that were there any net structural change within the GST molecule alone, it would involve less than 0.5% of its total secondary structure. […] Furthermore, this binding has significant structural consequences for the Bcl-2 protein, involving approximately 15% to 20% of the loop residues.

Bcl-2/GST fusion protein [1] = biological target: T1, Bcl-2/GST fusion protein (Homo sapiens, UniProt P10415); assay: ELISA binding of Bcl-2/GST fusion protein to immobilized biotinylated taxane; conditions: confirmation of binding of Bcl-2 to taxol
T1 sequence (P10415 whole entry, the tested form may be a part): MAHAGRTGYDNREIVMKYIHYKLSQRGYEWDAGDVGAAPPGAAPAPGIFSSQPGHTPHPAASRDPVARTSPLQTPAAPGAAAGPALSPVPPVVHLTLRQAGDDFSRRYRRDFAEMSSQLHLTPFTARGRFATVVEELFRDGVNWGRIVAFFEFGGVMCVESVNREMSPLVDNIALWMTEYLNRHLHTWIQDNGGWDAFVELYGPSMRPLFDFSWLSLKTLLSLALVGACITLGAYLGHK
Description: ELISA binding assays were used to determine if the Bcl-2/GST fusion protein binds directly to immobilized biotinylated taxol. Anti-Bcl-2 antibodies were used to detect Bcl-2 binding. […] The x-axis is the log nM concentration of protein in solution (Bcl-2 or Bcl-XL); the y-axis is the uncorrected optical density at 490 nm. The insert is the chemical structure of the biotinylated taxol used in the selection of peptides.

Bcl-2/GST fusion protein [2] = biological target: T1, Bcl-2/GST fusion protein; assay: Circular dichroism spectroscopy of Bcl-2/GST with and without taxol; type: binding
Description: Each spectrum is the averaged result of five spectra and subtracted baselines with standard deviations as indicated. These differences are much larger than the error bars (standard deviations) in the measurements, and involve a change in both the shape of the curve (ratio of the 220/210 nm peaks) and the peak positions. The secondary structures calculated for the Bcl-2 fusion protein with and without taxol differ by approximately 4%, and appear to involve a change in a region of the molecule that is found in a beta-turn conformation. This corresponds to the type of secondary structure which is predicted for the HTPHP-containing portion of the Bcl-2 loop region (SEQ. ID No. 3). […] Homology between TAX2.29 and human Bcl-2 lies between positions 1 through 12 and residues 55 through 66 respectively, inferring a minimum drug/protein interaction of at least twelve amino acids.

[3] = tested on: 697 human acute leukemia pre-B cells; conditions: 697 cells; cited from earlier work

Sequence of human LIF (P15018 23-202): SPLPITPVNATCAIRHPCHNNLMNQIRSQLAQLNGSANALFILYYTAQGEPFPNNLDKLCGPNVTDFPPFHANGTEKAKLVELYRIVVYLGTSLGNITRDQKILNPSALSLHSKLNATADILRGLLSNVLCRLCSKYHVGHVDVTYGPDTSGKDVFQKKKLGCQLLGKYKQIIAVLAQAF

SMILES | binding affinity in words (human LIF) | CD spectra with and without taxol (GST) | net structural change as share of total secondary structure (GST) | binding affinity in words (Bcl-2/GST fusion protein [1]) | difference in calculated secondary structure with and without taxol (Bcl-2/GST fusion protein [2]; CD, beta-turn region) | conformational change upon binding taxol (CD spectrum) (Bcl-2/GST fusion protein [2]; spectra with and without taxol) | apoptosis [3] | phosphorylation of Bcl-2 [3]
C1=COC=CO1 [dioxin] | at least micromolar affinity |  |  |  |  |  |  | 
CC(=O)O[C@H]1C(=O)[C@@]2(C)[C@H]([C@H](OC(=O)c3ccccc3)[C@]3(O)C[C@H](OC(=O)[C@H](O)[C@@H](NC(=O)c4ccccc4)c4ccccc4)C(C)=C1C3(C)C)[C@]1(OC(C)=O)CO[C@@H]1C[C@@H]2O [taxol] |  | virtually identical | less than 0.5% | micromolar affinity | approximately 4% | substantial conformational change | induces | induces
CC(=O)O[C@@]12CO[C@@H]1C[C@H](O)[C@@]1(C)C(=O)[C@H](O)C3=C(C)[C@@H](OC(=O)[C@H](O)[C@@H](NC(=O)OC(C)(C)C)c4ccccc4)C[C@@](O)([C@@H](OC(=O)c4ccccc4)[C@H]21)C3(C)C [taxotere] |  |  |  |  |  |  | induces | induces
